# Measured values taken from PubChem BioAssay AID2060492 (Molecular Pharmacology Branch, DTP, NCI, 2025).
# System: 695427-040-R-J1-PDC complex spheroids, viability percent T/C
# Assay: Anticancer human tumor 695427-040-R-J1-PDC patient-derived colon adenocarcinoma cell line growth inhibition [GQUAD]
# Settings: for IC50: curve of first compound; for viability, T/C: stronger effect = lower value
# From the text: DNA G-quadruplex Stabilizer Agents in Combinations in Complex Spheroids
# A high-throughput screen of multi-cell type tumor spheroids was designed to identify active combinations of DNA G-quadruplex stabilizer agents and targeted small molecules. Complex spheroids include a stromal component modeled by human endothelial cells (HUVEC) and fibroblasts modeled by human mesenchymal stem cells (MSCs). The concentration ranges selected for each drug and investigational agent were based upon clinically achievable concentrations if the clinical Cmax of the agent was known.
# Compounds. The drugs and investigational agents: pidnarulex (CX-5461; NSC782164), APTO-253 (NSC789042), BRACO-19 (NSC847499), peposertib (NSC802822), ceralasertib (NSC780249), elimusertib (NSC800525), camonsertib (NSC841442), AZD-1390 (NSC803789), olaparib (NSC753686), talazoparib (NSC767125), ART-558 (NSC835418), sotorasib (NSC818433), MRTX-1133 (NSC836407), SN-38 (NSC673596), topotecan (NSC609699), etoposide (NSC141540), doxorubicin (NSC123127), gemcitabine (NSC613327), 5-fluorouracil (NSC19893), paclitaxel (NSC125973), vemurafenib (NSC761431), panobinostat (NSC761190), R-306465 (JNJ-16241199; NSC773264), adavosertib (NSC754352), TP-3654 (NSC805149), carboplatin (NSC241240), KSQ-4279 (NSC840948), and staurosporine (NSC755774) were obtained from the National Cancer Institute (NCI) Developmental Therapeutics Program Chemical Repository (34). The FDA-approved anticancer drug set is available from the NCI Developmental Therapeutics Program. […] The stock solutions were prepared in dimethyl sulfoxide (DMSO, Sigma-Aldrich, St. Louis, MO, cat. D2650) at 800-fold the tested concentration and stored at -70 degrees C prior to their use. All drugs and investigational agents were tested over a range starting from a high concentration at or near the clinical Cmax and decreasing in half-log increments. If the clinical Cmax for an agent had not been determined, the highest concentration tested was 10 microM.
# 2.3 Cell Culture. All cells were maintained in an incubator at 37 degrees C and 5% CO2 with 95% humidity. The PDC lines were cultured according to standard operating procedures established by the NCI PDMR. All PDCs were thawed and cultured in Matrigel-coated flasks prepared with a working solution of 1X Ham's F-12 nutrient mix, without supplementation (Invitrogen, cat. 11765054), 100 U/mL penicillin-streptomycin (Invitrogen, cat. 15140122), and 2.5% Matrigel (Corning Inc., cat. 354248) for the first three passages. The 857933-349-R-J2-PDC line was cultured in 6C/Colon 1B media, which includes advanced DMEM/F-12 (Thermo Fisher Scientific, cat. 12634028), 10 mM HEPES (Thermo Fisher Scientific, cat. 15630080), 1X GlutaMAX supplement (Thermo Fisher Scientific, cat. 35050061), 0.1 mg/mL primocin (InvivoGen, cat. ant-pm-2), 10% defined fetal bovine serum, heat inactivated (HyClone Laboratories Inc., cat. SH30070.03HI), 50% L-WRN conditioned media (ATCC, cat. CRL-3276), 1.25 mM N-Acetyl-L-cysteine (Sigma-Aldrich, cat. A9165), 10 mM nicotinamide (Sigma-Aldrich, cat. N0636), 1X B-27 supplement (Thermo Fisher Scientific, cat. 17504044), 1X N-2 supplement (Thermo Fisher Scientific, cat. 17502048), 10 microM Y-27632 dihydrochloride (Tocris Bioscience, cat. 1254), and 50 ng/mL human EGF recombinant protein (Thermo Fisher Scientific, cat. PHG0311). The 485176-168-R4-J1-PDC line was cultured in Panc media, which includes all 6C/Colon 1B media components plus 100 ng/mL human FGF-10 (Thermo Fisher Scientific, cat. 100-26), 500 nM SB-431542 (Selleckchem, cat. S1067), and gastrin (Tocris, cat. 3006).
# […]
# [1] = second compound 0.0316 µM, first compound 0.0316 µM
# [2] = second compound 0.0316 µM, first compound 0.316 µM
# [3] = second compound 0.1 µM, first compound 0.0316 µM
# [4] = second compound 0.1 µM, first compound 0.316 µM
# [5] = second compound 0.316 µM, first compound 0.0316 µM
# [6] = second compound 0.316 µM, first compound 0.316 µM
# [7] = second compound 1 µM, first compound 0.0316 µM
# [8] = second compound 1 µM, first compound 0.316 µM
# [9] = second compound 3.16 µM, first compound 0.0316 µM
# [10] = second compound 3.16 µM, first compound 0.316 µM
# [11] = second compound 10 µM, first compound 0.0316 µM
# [12] = second compound 10 µM, first compound 0.316 µM
# 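Further: spheroids exposed to compounds for seven days before readout.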
structure (smiles),measurement,setting,value
CC[C@@]1(O)C(=O)OCc2c1cc1n(c2=O)Cc2cc3c(CN(C)C)c(O)ccc3nc2-1 + Cc1[nH]c2ccc(F)cc2c1-c1nc2c3cccnc3c3ncccc3c2[nH]1,IC50,second compound 0.0316 µM,> 0.316 µM
same,IC50,second compound 0.1 µM,> 0.316 µM
same,IC50,second compound 0.316 µM,> 0.316 µM
same,IC50,second compound 1 µM,> 0.316 µM
same,IC50,second compound 3.16 µM,> 0.316 µM
same,IC50,second compound 10 µM,> 0.316 µM
same,"viability, T/C","second compound 0.0316 µM, first compound 0.000999 µM",108%
same,"viability, T/C","second compound 0.0316 µM, first compound 0.00316 µM",105%
same,"viability, T/C","second compound 0.0316 µM, first compound 0.00999 µM",109%
same,"viability, T/C",[1],71.5%
same,"viability, T/C","second compound 0.0316 µM, first compound 0.0999 µM",98.3%
same,"viability, T/C",[2],82.1%
same,"viability, T/C","second compound 0.1 µM, first compound 0.000999 µM",94.5%
same,"viability, T/C","second compound 0.1 µM, first compound 0.00316 µM",89.4%
same,"viability, T/C","second compound 0.1 µM, first compound 0.00999 µM",94.1%
same,"viability, T/C",[3],78.7%
same,"viability, T/C","second compound 0.1 µM, first compound 0.0999 µM",94.2%
same,"viability, T/C",[4],89.8%
same,"viability, T/C","second compound 0.316 µM, first compound 0.000999 µM",97.3%
same,"viability, T/C","second compound 0.316 µM, first compound 0.00316 µM",90.4%
same,"viability, T/C","second compound 0.316 µM, first compound 0.00999 µM",92.9%
same,"viability, T/C",[5],88.2%
same,"viability, T/C","second compound 0.316 µM, first compound 0.0999 µM",101%
same,"viability, T/C",[6],78.9%
same,"viability, T/C","second compound 1 µM, first compound 0.000999 µM",85.2%
same,"viability, T/C","second compound 1 µM, first compound 0.00316 µM",97.2%
same,"viability, T/C","second compound 1 µM, first compound 0.00999 µM",92.6%
same,"viability, T/C",[7],95%
same,"viability, T/C","second compound 1 µM, first compound 0.0999 µM",91.3%
same,"viability, T/C",[8],73.2%
same,"viability, T/C","second compound 3.16 µM, first compound 0.000999 µM",62.5%
same,"viability, T/C","second compound 3.16 µM, first compound 0.00316 µM",82.9%
same,"viability, T/C","second compound 3.16 µM, first compound 0.00999 µM",79.3%
same,"viability, T/C",[9],72.4%
same,"viability, T/C","second compound 3.16 µM, first compound 0.0999 µM",84.4%
same,"viability, T/C",[10],77.3%
same,"viability, T/C","second compound 10 µM, first compound 0.000999 µM",58.9%
same,"viability, T/C","second compound 10 µM, first compound 0.00316 µM",78.8%
same,"viability, T/C","second compound 10 µM, first compound 0.00999 µM",83.8%
same,"viability, T/C",[11],78.2%
same,"viability, T/C","second compound 10 µM, first compound 0.0999 µM",89.5%
same,"viability, T/C",[12],73.1%
Cc1cccc(N(C)C(=O)C2C(O)CCN2c2nc(C)cc(C(F)(F)F)c2C#N)c1 (centres undefined) + Cc1[nH]c2ccc(F)cc2c1-c1nc2c3cccnc3c3ncccc3c2[nH]1,IC50,second compound 0.0316 µM,> 10 µM
same,IC50,second compound 0.1 µM,> 10 µM
same,IC50,second compound 0.316 µM,> 10 µM
same,IC50,second compound 1 µM,> 10 µM
same,IC50,second compound 3.16 µM,> 10 µM
same,IC50,second compound 10 µM,> 10 µM
same,"viability, T/C",[1],109%
same,"viability, T/C","second compound 0.0316 µM, first compound 0.1 µM",124%
same,"viability, T/C",[2],105%
same,"viability, T/C","second compound 0.0316 µM, first compound 1 µM",106%
same,"viability, T/C","second compound 0.0316 µM, first compound 3.16 µM",95.2%
same,"viability, T/C","second compound 0.0316 µM, first compound 10 µM",92.3%
same,"viability, T/C",[3],102%
same,"viability, T/C","second compound 0.1 µM, first compound 0.1 µM",88%
same,"viability, T/C",[4],107%
same,"viability, T/C","second compound 0.1 µM, first compound 1 µM",76.3%
same,"viability, T/C","second compound 0.1 µM, first compound 3.16 µM",104%
same,"viability, T/C","second compound 0.1 µM, first compound 10 µM",86.4%
same,"viability, T/C",[5],93.2%
same,"viability, T/C","second compound 0.316 µM, first compound 0.1 µM",91.2%
same,"viability, T/C",[6],98.8%
same,"viability, T/C","second compound 0.316 µM, first compound 1 µM",76.9%
same,"viability, T/C","second compound 0.316 µM, first compound 3.16 µM",91.4%
same,"viability, T/C","second compound 0.316 µM, first compound 10 µM",80.5%
same,"viability, T/C",[7],79.7%
same,"viability, T/C","second compound 1 µM, first compound 0.1 µM",89.4%
same,"viability, T/C",[8],85.2%
same,"viability, T/C","second compound 1 µM, first compound 1 µM",82.5%
same,"viability, T/C","second compound 1 µM, first compound 3.16 µM",93.8%
same,"viability, T/C","second compound 1 µM, first compound 10 µM",87.1%
same,"viability, T/C",[9],70.2%
same,"viability, T/C","second compound 3.16 µM, first compound 0.1 µM",75.2%
same,"viability, T/C",[10],84.8%
same,"viability, T/C","second compound 3.16 µM, first compound 1 µM",91.1%
same,"viability, T/C","second compound 3.16 µM, first compound 3.16 µM",95.6%
same,"viability, T/C","second compound 3.16 µM, first compound 10 µM",72.6%
same,"viability, T/C",[11],68.4%
same,"viability, T/C","second compound 10 µM, first compound 0.1 µM",78.4%
same,"viability, T/C",[12],83.8%
same,"viability, T/C","second compound 10 µM, first compound 1 µM",79.9%
same,"viability, T/C","second compound 10 µM, first compound 3.16 µM",88.3%
same,"viability, T/C","second compound 10 µM, first compound 10 µM",72%
